# According to patent publication US6784309B2, “Method for the purification of N-[N-(3,3-dimethylbutyl)-L-α-aspartyl]-L-phenylalanine 1-methyl ester” (The Nutrasweet Company, priority 1999, dated 2004):
# How the values were obtained:
# [1] = solubility compared to neotame; assay type: physicochemical; conditions: relative to neotame; for solubility compared to neotame: crystallization context
# [2] = relative to sucrose; cited from earlier work
SMILES,solubility compared to neotame [1],also measured
"CC(C)(C)CCN[C@@H](CC(=O)O)C(=O)N[C@@H](Cc1ccccc1)C(=O)O [demethylated α-neotame, N-[N-(3,3-dimethylbutyl)-L-α-aspartyl]-L-phenylalanine]",–,solubility in water compared to neotame ([1]; water): more soluble in water
"COC(=O)[C@H](Cc1ccccc1)N1C(=O)C(CC(=O)O)N(CCC(C)(C)C)C1CC(C)(C)C (stereo partly drawn) [dialkylated imidazolidinone, α-methyl hydrogen-3-(3,3-dimethylbutyl)-2-L-(2,2-dimethylpropyl)-5-oxo-α-L-(phenylmethyl)-1,4(L)-imidazolidine diacetate]",very similar solubilities,–
"COC(=O)C(Cc1ccccc1)NC(=O)C(CC(=O)O)NCCC(C)(C)C [neotame, N-[N-(3,3-dimethylbutyl)-L-α-aspartyl]-L-phenylalanine 1-methyl ester]",–,sweetness potency (sweeter than sucrose) [2]: about 8000 X

# More lines, main results first:
solubility compared to neotame [1],SMILES,also measured
very similar solubilities,"COC(=O)[C@H](Cc1ccccc1)NC(=O)[C@H](CC(=O)O)N(CCC(C)(C)C)CCC(C)(C)C [dialkylated aspartame, N,N-di(3,3-dimethylbutyl)-L-aspartyl-L-phenylalanine methyl ester]",–
very similar solubilities,"COC(=O)C[C@H](NCCC(C)(C)C)C(=O)NC(Cc1ccccc1)C(=O)OC (stereo partly drawn) [methyl ester of α-neotame, methyl ester of N-[N-(3,3-dimethylbutyl)-L-α-aspartyl]-L-phenylalanine 1-methyl ester]",–
